These results are taken from patent publication EP0042354A2, “Imidazobenzothiadiazepines, process for their preparation and pharmaceutical compositions containing them” (CIBA-GEIGY AG, priority 1980, dated 1981).

A value given as a limit tells only on which side of the number the result lay.

Common to all, as to format: in vivo
The test system of data set [1] is Totenkopf-Aeffchen (squirrel monkeys). As to the kind of experiment: Sidman avoidance test (conditioned avoidance, lever press to postpone foot shock), monkeys. Particulars: Saimiri, in Primates, compound given 30, 90 and 210 min before the test, total dose, read-out: Gesamtdosis, welche die Vermeidungs-Reaktionen vermindert. From the text: (§1) Die Verbindungen der Erfindung zeigen wertvolle pharmakologische Eigenschaften, in erster Linie neuroleptische Wirkungen. Diese können in Tierversuchen, vorzugsweise an Säugern, z.B. Mäusen, Ratten oder Affen, als Testobjekte, nachgewiesen werden. Die genannten Verbindungen können ihnen enteral oder parenteral, vorzugsweise oral oder subkutan, intravenös oder intraperitoneal, z.B. durch Steckkapseln oder in Form von Stärke enthaltenden Suspensionen bzw. wässerigen Lösungen, verabreicht werden. Die verwendete Dosis kann in einem Bereich von ungefähr zwischen 0,01 und 100 mg/kg/Tag, vorzugsweise ungefähr 0,05 und 10 mg/kg/Tag, insbesonder zwischen 0,1 und 5 mg/kg/Tag, liegen.
(§2) Die genannten neuroleptischen Eigenschaften können an ausgewachsenen Ratten oder Totenkopf-Aeffchen (squirrel monkeys) nachgewiesen werden. Die Tiere sind zur Betätigung eines Hebels trainiert, wodurch sie einem auf den Fuss verabreichten elektrischen Schock ausweichen können. Jeder Hebeldruck verschiebt den Schock um 30 Sekunden. Vergisst das Tier den Hebel innerhalb des genannten Zeitintervalls einmal zu drücken, so werden alle 15 Sekunden kurze (0,5 sec.) elektrische Schocks abgegeben, bis das Tier den Hebel wieder betätigt. […]

In another data set the test system is Totenkopf-Aeffchen. The experiment in a line: Extrapyramidal side effects and neurological symptoms observed in haloperidol-sensitised squirrel monkeys. The source says:
Die bei den klassischen Neuroleptica bekannten extrapyramidalen Nebenwirkungen (ENW) lösen in Totenkopf-Aeffchen, welche vorher einer wiederholten antipsychotischen Behandlung unterworfen waren, charakteristische motorische Syndrome aus. Diese Bewegungsstörungen bestehen aus dystonischen Kõrperhaltungen und dyskinetischen Bewegungen, welche besser den bei Menschen auftretenden ENW entsprechen, als dies die Katalepsie oder Zittern tut. So können potentielle extrapyramidale Nebenwirkungen, aber gegebenenfalls auch andere neurologische Symptome, z.B. Ptosis, durch Beobachtung von ausgewachsenen Totenkopf-Aeffchen (von einem Gewicht von 700-1200 g) beurteilt werden. Die Tiere werden einmal wöchentlich oder einmal in zwei Wochen mit Haloperidol (1,25 mg/kg) behandelt. Nach einer derartigen Behandlung von ungefähr 2-4 Monaten treten 1-6 Stunden nach der Verabreichung von Haloperidol offensichtliche dystonische Körperhaltungen und dyskinetische Bewegungen auf. Sonst können in anderen Zeitpunkten keine abnormalen Bewegungen der Affen festgestellt werden. Nach dem Auftreten von, durch Haloperidol hervorgerufenen Dyskinesien, wird die oben geschilderte Behandlungsweise abgebrochen. Die Tiere erhalten nachher lediglich alle 4-8 Wochen 1,25 mg/kg Haloperidol und sie werden als Kontrolltiere bei der Untersuchung von Verbindungen dieser Erfindung eingesetzt.
Die Affen werden in Intervallen von 2, 4 und 6 Stunden nach der Behandlung beurteilt. Die Versuche werden in verschlossenen Zellen, welche mit ferngesteuerten Video-Beobachtungsapparaten und mit einem einheitlichen Summton-Generator ausgerüstet sind, durchgeführt. Die Beurteilungen der Tiere werden durch zwei voneinander unabhängige Beobachter vorgenommen, welche keine Kenntnis von den verabreichten Verbindungen und vom Ziel des Versuchs haben. Während der neurologischen Untersuchungen werden die Affen von einer dritten Person behandelt. Zuerst werden die Tiere durch das Video-System beobachtet. Dann betreten die Beobachter die Versuchstelle und notieren die Reaktionen der Affen als "motorisch" (das Tier geht umher in der Zelle), "visuell" (eine offenbare Reaktion, jedoch kein Umhergehen) und "keine" (keine Reaktion). Es werden auch Aktivität, Köperhaltung, Zittern, vermehrter Speichelfluss und andere neurologische Symptome berücksichtigt. Besondere Beachtung wird dem Vorhandensein oder Abwesenheit von "bizarren", vorher genannten, distonischen Körperhaltungen und dyskinetischen Bewegungen gewidmet. Die die Tiere behandelnde Person nimmt dann den Affen aus der Zelle heraus. Dabei werden die Reaktionen des Affen auf die Annäherung der mit einem Handschuh geschützten Hand, auf die erste Berührung beim Anfassen undauf die Hemmnisse nach der Gefangennahme, separat aufgeschrieben. Die Vokalisation während der Gefangennahme wird auch beurtielt. Die Person, welche das Tier behandelt, wertet dann den Körpertonus und die Pupillengrösse aus und stellt fest, ob Ptosis vorhanden ist. Hat die vorhergehende Untersuchung nahegelegt, dass Katalepsie aufgetreten ist, so wird dieses Symptom ausgewertet. Der Affe wird zuerst, Kopf nach unten, auf den Boden, dann zum Zelleneingang und schliesslich in die Beobachtungszelle gestellt. Bleibt der Affe in allen diesen Stellungen mindestens 5 Sekunden im wesentlichen unbeweglich, so wird das Vorhandensein der Katalepsie bejaht. […]

In a further data set the test system is Ratten. As to the kind of experiment: Sidman avoidance test (conditioned avoidance, lever press to postpone foot shock), rats. To be noted: Rattus norvegicus, compound given 30, 90 and 210 min before the test, total dose, read-out: Gesamtdosis, welche die Vermeidungs-Reaktionen vermindert.
Excerpt: as §1, §2

In the case of `CN1CCN(C2=Nc3ccccc3Sc3nccn32)CC1` [Beispiel 1, 5-(4-Methylpiperazino)-imidazo[2,1-b][1,3,5]benzothia-diazepin], the minimal effective dose (in data set [1]; with Ratten) was no more than 10 mg/kg in each case. Further, the “vermehrter Speichelfluss” value with Totenkopf-Aeffchen (in vivo) was “nicht festellbar”.
With `CN1CCN(C2=Nc3cc(Cl)ccc3Nc3ccccc32)CC1` [Clozapin], in the data set on Totenkopf-Aeffchen (10 mg/kg, monkeys rated 2, 4 and 6 h after treatment), the “dyskinetische Bewegungen / Dyskinesien” value is given as “nicht aufgetreten”. The “vermehrter Speichelfluss” value with Totenkopf-Aeffchen (monkeys rated 2, 4 and 6 h after treatment, doses as in the dyskinesia test) was “bei jedem untersuchten Affen”.
On to `O=C(CCCN1CCC(O)(c2ccc(Cl)cc2)CC1)c1ccc(F)cc1` [Haloperidol], for which the “dyskinetische Bewegungen / Dyskinesien” value in the data set with Totenkopf-Aeffchen (0,625 mg/kg (low dose), monkeys rated 2, 4 and 6 h after treatment) is on record as “an fünf Affen feststellbar”; in the data set with Totenkopf-Aeffchen (1,25 mg/kg, monkeys rated 2, 4 and 6 h after treatment), “schwere Dyskinesie”.
